# Measurements published in patent US20080114047A1 (priority 2003, published 2008).
# Several values for one entry are separate records, joined by “and”; a condition that tells them apart may be missing. Equal entries are not always repeated. Structures can show the parent of a compound that is named as a salt. Where two headings read alike, the source gives them in different places.
# Legend:
# Cryptococcus neoformans = test: Anti-fungal data: Cryptococcus neoformans; format: cell-based; conditions: for MFC / MIC80: strain H99; for MIC: strain H99, read-out: Cryptococcus neoformans (H99) MIC100
# Plasmodium falciparum = test: Anti-protozoan data: P. falcip. IC50; format: cell-based; conditions: Tables VI(a), VI(c), read-out: P. falcip. IC50
# [1] = tested on: L. donovani axenic amastigotes; test: In vitro anti-leishmania activity (IC50 vs. L. donovani axenic amastigotes); format: cell-based; conditions: for IC50: Leishmania donovani
# DNA = DNA binding ΔTm; conditions: Tables VI(a), VI(c)
# [2] = tested on: Mycobacterium tuberculosis; test: Compounds tested against Mycobacterium tuberculosis (MIC90); format: cell-based; conditions: read-out: M. tb. MIC90
# Aspergillus fumigatus = test: Anti-fungal data: Aspergillus fumigatus; format: cell-based; conditions: for MIC: strain DUMC 168.95, read-out: Aspergillus. Fumigatus (DUMC 168.95) MIC100
# [3] = tested on: Trypanosoma brucei rhodesiense; test: Anti-protozoan data: T.b.r. IC50; format: cell-based; conditions: Tables VI(a), VI(c), read-out: T.b.r. IC50
# Trypanosoma cruzi = test: Anti-protozoan data: T. cruzi IC50; format: cell-based; conditions: Tables VI(a), VI(c), read-out: T. cruzi IC50
# Candida albicans = test: Anti-fungal data: Candida albicans; format: cell-based; conditions: for MFC / MIC80: strain A39; for MIC: strain A39, read-out: Candida albicans (A39) MIC100
# J774 macrophages = test: Toxicity against J774 macrophages (IC50); format: cell-based; conditions: Mus musculus, Tables I-III, V
# [4] = Tables VI(a), VI(c), read-out: Leishmania donovani IC50
# [5] = axenic amastigotes, Tables I-V, read-out: IC50 vs. L. donovani
structure (smiles),measurement,setting,value
"CC(C)NC(=N)c1ccc2oc(CCCCc3cc4cc(C(=N)NC(C)C)ccc4o3)cc2c1 [Compound 21, dihydrochloride]",MFC,Cryptococcus neoformans,> 100 mg/L
same,MIC80,Cryptococcus neoformans,100 mg/L
same,MIC,Cryptococcus neoformans,100 mg/L
same,IC50,Plasmodium falciparum,0.0098 µM
same,IC50,[1]; [4],12.7 ± 2.27 µM
same,DNA binding Δ Tm,DNA,6.60
same,MIC90,[2],0.07 µg/mL and 0.13 µM
same,MIC80,Aspergillus fumigatus; strain DUMC 168.95,> 100 mg/L
same,MIC,Aspergillus fumigatus,> 100 mg/L
same,IC50,in vitro,> 163 µM
same,IC50,[3],0.0988 µM
same,IC50,Trypanosoma cruzi,69.1 µM
same,MFC,Candida albicans,> 100 mg/L
same,MIC80,Candida albicans,10 mg/L
same,MIC,Candida albicans,10 mg/L
"Cl.Cl.c1cc(OCCCOc2ccc(C3=NCCN3)cc2)cc(-c2cc3cc(C4=NCCN4)ccc3o2)c1 [Compound 34, 2-(2-(3-(3-(4-(4,5-Dihydro-1H-imidazol-2-yl)phenoxy)propoxy)phenyl)benzofuran-5-yl) -4,5-dihydro-1H-imidazole dihydrochloride]",IC50,Plasmodium falciparum,0.108 µM
same,IC50,[1]; [4],5.93 ± 0.04 µM
same,IC50,[1]; [5],5.93 ± 0.04 µM
same,IC50,J774 macrophages,7.1 ± 0.8 µM
same,IC50,in vitro,6.52 µM
same,IC50,[3],1.17 µM
same,melting point,,193 to 197 °C
"Cl.Cl.N=C(N)c1ccc(OCCCCOc2cccc(-c3cc4cc(C(=N)N)ccc4o3)c2)cc1 [Compound 35, 2-(3-(4-(4-Carbamimidoylphenoxy)butoxy)phenyl)benzofuran-5-carboxamidine dihydrochloride]",IC50,Plasmodium falciparum,0.0755 µM
same,IC50,[1]; [4],4.45 ± 1.93 µM
same,IC50,[1]; [5],4.45 ± 1.93 µM
same,IC50,J774 macrophages,9.6 ± 1.5 µM
same,IC50,in vitro,8.06 µM
same,IC50,[3],0.779 µM
same,melting point,,284 to 286 °C
"Cl.Cl.N=C(N)c1ccc(OCCCCCOc2cccc(-c3cc4cc(C(=N)N)ccc4o3)c2)cc1 [Compound 38, 2-(3-(5-(4-Carbamimidoylphenoxy)pentyloxy)phenyl)benzofuran-5-carboxamidine dihydrochloride]",MFC,Cryptococcus neoformans,3.12 mg/L
same,MIC80,Cryptococcus neoformans,0.39 mg/L
same,MIC,Cryptococcus neoformans,0.781 mg/L
same,IC50,Plasmodium falciparum,0.428 µM
same,IC50,[1]; [4],10.5 ± 2.11 µM
same,DNA binding Δ Tm,DNA,21.1
same,MIC90,[2],1.96 µg/mL and 3.48 µM
same,MIC80,Aspergillus fumigatus; strain DUMC 168.95,50 mg/L
same,MIC,Aspergillus fumigatus,> 100 mg/L
same,IC50,in vitro,3.02 µM
same,IC50,[3],0.863 µM
same,IC50,Trypanosoma cruzi,7.78 µM
same,melting point,,165 to 168 °C
same,MFC,Candida albicans,12.5 mg/L
same,MIC80,Candida albicans,0.78 mg/L
same,MIC,Candida albicans,6.25 mg/L
"Cl.Cl.N=C(N)c1ccc(OCCCCCOc2ccc(-c3cc4cc(C(=N)N)ccc4o3)cc2)cc1 [Compound 50, 2-(4-(5-(4-Carbamimidoylphenoxy)pentyloxy)phenyl)benzofuran-5-carboxamidine dihydrochloride]",MFC,Cryptococcus neoformans,12.5 mg/L
same,MIC80,Cryptococcus neoformans,0.39 mg/L
same,MIC,Cryptococcus neoformans,0.78 mg/L
same,IC50,Plasmodium falciparum,0.313 µM
same,DNA binding Δ Tm,DNA,12.7
same,MIC90,[2],1.01 µg/mL and 1.84 µM
same,MIC80,Aspergillus fumigatus; strain DUMC 168.95,6.25 mg/L
same,MIC,Aspergillus fumigatus,> 100 mg/L
same,IC50,in vitro,4.19 µM
same,IC50,[3],0.369 µM
same,IC50,Trypanosoma cruzi,4.71 µM
same,melting point,,290 °C (dec.)
same,MFC,Candida albicans,3.12 mg/L
same,MIC80,Candida albicans,0.39 mg/L
same,MIC,Candida albicans,0.78 mg/L
"CC(C)NC(=N)c1ccc(OCCCCCOc2ccc(-c3cc4cc(C(=N)NC(C)C)ccc4o3)cc2)cc1.Cl.Cl [Compound 51, 2-(4-(5-(4-(N-Isopropylcarbamimidoyl)phenoxy)pentyloxy)phenyl)-N-isopropylbenzofuran-5-carboxamidine dihydrochloride]",IC50,Plasmodium falciparum,0.193 µM
same,IC50,[1]; [4],2.08 ± 0.64 µM
same,DNA binding Δ Tm,DNA,18.7
same,MIC90,[2],0.9 µg/mL and 1.43 µM
same,MFC,Aspergillus fumigatus; strain DUMC 168.95,> 100 mg/L
same,MIC80,Aspergillus fumigatus; strain DUMC 168.95,100 mg/L
same,MIC,Aspergillus fumigatus,100 mg/L
same,IC50,in vitro,20.5 µM
same,IC50,[3],0.302 µM
same,IC50,Trypanosoma cruzi,7.68 µM
same,melting point,,260 to 263 °C
same,MFC,Candida albicans,100 mg/L
same,MIC80,Candida albicans,100 mg/L
same,MIC,Candida albicans,100 mg/L
"Cl.Cl.c1cc(C2=NCCN2)ccc1OCCCCCCOc1ccc(-c2cc3cc(C4=NCCN4)ccc3o2)cc1 [Compound 55, 2-(2-(4-(6-(4-(4,5-Dihydro-1H-imidazol-2-yl)phenoxy)hexyloxy)phenyl)benzofuran-5-yl)-4,5-dihydro-1H-imidazole dihydrochloride]",IC50,Plasmodium falciparum,0.116 µM
same,IC50,[1]; [4],3.32 ± 0.97 µM
same,DNA binding Δ Tm,DNA,14.4
same,MIC90,[2],> 82.7 µg/mL and > 128 µM
same,MIC80,Aspergillus fumigatus; strain DUMC 168.95,10 mg/L
same,MIC,Aspergillus fumigatus,> 100 mg/L
same,IC50,in vitro,1.48 µM
same,IC50,[3],0.36 µM
same,IC50,Trypanosoma cruzi,1.83 µM
same,melting point,,275 to 277 °C
same,MFC,Candida albicans,10 mg/L
same,MIC80,Candida albicans,10 mg/L
same,MIC,Candida albicans,10 mg/L
"Cl.Cl.N=C(N)c1ccc(OCCCCOc2cccc(-c3cc4ccc(C(=N)N)cc4o3)c2)cc1 [Compound 59, 2-(3-(4-(4-Carbamimidoylphenoxy)butoxy)phenyl)benzofuran-6-carboxamidine dihydrochloride]",IC50,Plasmodium falciparum,0.321 µM
same,IC50,[1]; [4],5.93 ± 0.24 µM
same,IC50,[1]; [5],5.93 ± 0.24 µM
same,IC50,J774 macrophages,11 ± 2 µM
same,IC50,in vitro,7.57 µM
same,IC50,[3],1.33 µM
same,melting point,,278 to 280 °C
"CC(C)NC(=N)c1ccc(OCCCOc2ccc(-c3cc4ccc(C(=N)NC(C)C)cc4o3)cc2)cc1.Cl.Cl [Compound 69, 2-(4-(3-(4-(N-Isopropylcarbamimidoyl)phenoxy)propoxy)phenyl)-N-isopropylbenzofuran-6-carboxamidine dihydrochloride]",IC50,Plasmodium falciparum,0.0366 µM
same,IC50,[1]; [4],3.18 ± 0.19 µM
same,IC50,[1]; [5],3.18 ± 0.19 µM
same,IC50,J774 macrophages,9.9 ± 1.7 µM
same,MIC90,[2],0.54 µg/mL and 0.92 µM
same,IC50,in vitro,49.9 µM
same,IC50,[3],0.0881 µM
same,IC50,Trypanosoma cruzi,28.4 µM
same,melting point,,266 to 270 °C
"Cl.Cl.c1cc(C2=NCCN2)ccc1OCCCOc1ccc(-c2cc3ccc(C4=NCCN4)cc3o2)cc1 [Compound 70, 2-(2-(4-(3-(4-(4,5-Dihydro-1H-imidazol-2-yl)phenoxy)propoxy)phenyl)benzofuran-6-yl)-4,5-dihydro-1H-imidazole dihydrochloride]",IC50,Plasmodium falciparum,0.0418 µM
same,selectivity for axenic amastigotes over J774 macrophages (fold more active against the parasites compared to the mammalian host cells),[1]; L. donovani vs. J774 macrophages,5 fold
same,IC50,[1]; [4],0.48 ± 0.16 µM
same,IC50,[1]; [5],0.48 ± 0.16 µM
same,IC50,J774 macrophages,2.4 ± 0.1 µM
same,MIC90,[2],0.86 µg/mL and 1.5 µM
same,IC50,in vitro,16.8 µM
same,IC50,[3],0.144 µM
same,IC50,Trypanosoma cruzi,7.11 µM
same,melting point,,283 to 284 °C
"Cl.Cl.N=C(N)c1ccc(OCCCCOc2ccc(-c3cc4ccc(C(=N)N)cc4o3)cc2)cc1 [Compound 71, 2-(4-(4-(4-Carbamimidoylphenoxy)butoxy)phenyl)benzofuran-6-carboxamidine dihydrochloride]",IC50,Plasmodium falciparum,0.166 µM
same,IC50,[1]; [4],3.22 ± 0.96 µM
same,IC50,[1]; [5],3.22 ± 0.96 µM
same,IC50,J774 macrophages,0.86 ± 0.2 µM
same,MIC90,[2],0.45 µg/mL and 0.85 µM
same,IC50,in vitro,14.1 µM
same,IC50,[3],1.06 µM
same,IC50,Trypanosoma cruzi,12.5 µM
same,melting point,,324 to 325 °C
"CC(C)NC(=N)c1ccc(OCCCCCOc2ccc(-c3cc4ccc(C(=N)NC(C)C)cc4o3)cc2)cc1.Cl.Cl [Compound 75, 2-(4-(5-(4-(N-Isopropylcarbamimidoyl)phenoxy)pentyloxy)phenyl)-N-isopropylbenzofuran-6-carboxamidine dihydrochloride]",IC50,Plasmodium falciparum,0.0744 µM
same,IC50,[1]; [4],1.38 ± 0.18 µM
same,IC50,[1]; [5],1.38 ± 0.18 µM
same,IC50,J774 macrophages,2.7 ± 0.1 µM
same,MIC90,[2],1.19 µg/mL and 1.92 µM
same,IC50,in vitro,10.7 µM
same,IC50,[3],0.557 µM
same,IC50,Trypanosoma cruzi,8.92 µM
same,melting point,,255 to 257 °C
"N=C(N)c1ccc(OCCCCCOc2ccc(C(=N)N)cc2)cc1 [Pentamidine, pentamidine, reference compound]",IC50,[1]; [5],2 ± 0.6 µM
same,IC50,J774 macrophages,23 ± 6 µM
